Tested on: Plasmodium berghei
Experiment: In vivo compound efficacy in Plasmodium berghei
Conditions: mice; oral 50 mg/kg at 4, 24, 48 and 72 hours post-infection; day 4
Method: Mice were infected intravenously with parasitized red blood cells on day 0 (2×10^7 parasitized erythrocytes per mL). Experimental mice were treated at 4, 24, 48, and 72 hours post-infection with an oral dose of Example 7 at 50 mg/kg and were compared to an infected control group for the % reduction in parasitaemia on day 4 (96 hours post-infection) and for mean survival (monitored up to 30 days post-infection). A compound was considered curative if the animal survived to day 30 after infection with no detectable parasites.
The potent anti-malarial activity of Example 7, combined with its therapeutic window in vitro, led us to explore its activity in vivo using a murine model of malaria. Mice are infected with the murine specific Plasmodium, P. berghei, after which an antimalarial treatment regimen is given. Example 7 was given at 50 mg/kg at times 4, 24, 48, and 72 hours post-infection of mice already infected with P. berghei. The reduction in parasitemia, measured as the total blood load of the P. berghei parasite, was compared to an infected control group for the percent reduction of parasite on day 4 (96 hours post-infection). Example 7 was unexpectedly shown to be effective in reducing parasitemia by 99% compared to the infected control group after 4 days, making it an effective antimalarial in these preclinical models.

Compound: COc1ccc2nc3cc(Cl)ccc3c(NCCCCN3CCN(C)CC3)c2c1 [Example 7, 6-Chloro-2-methoxy-N-(4-(4-methylpiperazin-1-yl)butyl)acridin-9-amine]
- reduction in parasitemia compared to the infected control group: 99%
